In the SangsterLogP compilation:

Assay: method code SF-AS, from DOI: 10.1246/bcsj.68.782
Settings: pH 2.0

| logD | Compound |
| --- | --- |
| 2.76 | O=C(O)c1ccc(Cl)cc1Cl |
| 1.75 | O=C(O)c1cc(O)c(Br)c(O)c1 |
| 1.63 | Cc1ccc([N+](=O)[O-])c(C(=O)O)c1 |
| 2.8 | Cc1ccc(C(=O)O)c(O)c1 |
| 2.35 | Cc1ccc(C(=O)O)cc1[N+](=O)[O-] |
| 3.29 | O=C(O)c1cc(Cl)cc(Cl)c1 |
| 2.53 | O=C(O)c1ccc(Cl)c([N+](=O)[O-])c1 |
| 1.73 | COc1c([N+](=O)[O-])cc(C(=O)O)cc1[N+](=O)[O-] |
| 2.42 | Cc1cc(C(=O)O)ccc1[N+](=O)[O-] |
| 2.16 | Cc1c(C(=O)O)cccc1[N+](=O)[O-] |
| 1.88 | O=C(O)c1cccc(F)c1F |
| 1.13 | COc1cc(C(=O)O)cc(OC)c1O |

| Compound | logD |
| --- | --- |
| COc1cc(C(=O)O)cc(OC)c1OC | 1.66 |
